Data set [1] relates to Hepatitis B virus. The data set is described as follows: Antiviral activity against entecavir-resistant wild type hepatitis B virus infected in human Huh7 cells assessed as reduction in secreted DNA levels measured on day 7 by real-time PCR analysis. It counts as functional, organism-based. Particulars: Huh-7, 168 h.
Data set [2] deals with Hepatitis B virus. The data set is described as follows: Antiviral activity against entecavir-resistant wild type hepatitis B virus infected in human Huh7 cells assessed as reduction in intracellular DNA levels measured on day 7 by real-time PCR analysis. The format is functional, organism-based. Particulars: Huh-7, 168 h.
The nature of data set [3]: Cytotoxicity in human HepG2.215 cells assessed as reduction in cell viability after 5 days by CCK8 assay. The format is cell-based, HepG2 2.2.15. Particulars: HepG2.2.15 cells.
Data set [4] deals with Hepatitis B virus. Description: Antiviral activity against entecavir-resistant hepatitis B virus harboring reverse transcriptase M204I/S202G double mutant infected in human Huh7 cells assessed as reduction in secreted DNA levels measured on day 7 by real-time PCR analysis. The format is functional, organism-based. Particulars: Huh-7, 168 h.
In data set [5] the test system is Hepatitis B virus. Description: Antiviral activity against entecavir-resistant hepatitis B virus harboring reverse transcriptase M204I/S202G double mutant infected in human Huh7 cells assessed as reduction in intracellular DNA levels measured on day 7 by real-time PCR analysis. The format is functional, organism-based. Particulars: Huh-7, 168 h.
Data set [6] concerns Hepatitis B virus. Description: Antiviral activity against entecavir-resistant hepatitis B virus harboring reverse transcriptase M204I/S202G/M250V triple mutant infected in human Huh7 cells assessed as reduction in secreted DNA levels measured on day 7 by real-time PCR analysis. Particulars: Huh-7, 168 h. The format is functional, organism-based.
The test system of data set [7] is Hepatitis B virus. The data set is described as follows: Antiviral activity against entecavir-resistant hepatitis B virus harboring reverse transcriptase M204I/S202G/M250V triple mutant infected in human Huh7 cells assessed as reduction in intracellular DNA levels measured on day 7 by real-time PCR analysis. The format is functional, organism-based. Particulars: Huh-7, 168 h.

Bounds are passed on as bounds.

In the case of `C=C1[C@H](CO)[C@@H](O)C[C@@H]1n1cnc2c(=O)[nH]c(N)nc21`, the concentration for a half-maximal effect (EC50) in data set [1] is 14 nM; in data set [2], 13 nM; in data set [4], greater than 20 µM; in data set [5], greater than 20 µM; in data set [6], greater than 20 µM; in data set [7], greater than 20 µM. In addition, the CC50 at 120 h in data set [3] came out at 30 µM.

These data come from ChEMBL document CHEMBL4177524, “Discovery of hepatitis B virus capsid assembly inhibitors leading to a heteroaryldihydropyrimidine based clinical candidate (GLS4)” (Bioorg Med Chem, 2017).
